Like-named read-outs stand apart in the source and are kept apart here.
How the values were obtained:
[1] = test system: first line metastatic breast cancer patients
Excerpt: The total number of patients in this trial was 1258, 1164 pretreatment serum samples were available for analysis. We obtained valid VeriStrat test results for 1046 of these patients, of which 961 were classified as VeriStrat Good, 80 were VeriStrat Poor, and 5 were VeriStrat Indeterminate (Undefined) (patients for whom 3 replicate spectra produced discrepant results); 117 samples were not evaluable due to hemolysis and we could not assign a VeriStrat label to one patient due to data inconsistencies between available samples.
The classifier assigned a class label to the samples, either “Good” or “Poor” or in a few instances “undefined.” The class labels were assigned using a K-nearest neighbor (KNN) scoring algorithm based on a comparison of the spectra, after preprocessing and calculation of integrated intensity values at selected features in the spectra, with a training set of class-labeled spectra from other cancer patients.
In our retrospective analysis of the EGF30008 study, we obtained serum samples from the patients participating in the study, subjected them to our VeriStrat test, and the samples were assigned class labels of Good or Poor, depending on the outcome of the KNN algorithm in the classifier.
A Cox Proportional Hazard Model analysis was carried out including VeriStrat classification, treatment arm, and an interaction term between the two.

[2] = test system: advanced breast cancer patients; details: letrozole versus anastrozole; cited from earlier work
[3] = test system: early breast cancer patients; details: 5 years of treatment, versus tamoxifen, hormone receptor-positive women; cited from earlier work

## N#Cc1ccc(C(c2ccc(C#N)cc2)n2cncn2)cc1 [letrozole]
[1]; HER2+ patients
  HR for PFS, VeriStrat Good vs VeriStrat Poor within the treatment arm (95% CI): 0.29
[1]; HER2+ patients, VeriStrat Good
  Median PFS: 3.0 months
[1]; HER2+ patients, VeriStrat Poor
  Median PFS: 2.3 months
[1]; HER2+ patients, listed as Let only
  HR for PFS, VeriStrat Good vs VeriStrat Poor within the treatment arm (95% CI): 0.29 (0.09-0.98)
[1]; HER2- patients, VeriStrat Good
  Median PFS: 13.6 months
[1]; HER2- patients, VeriStrat Poor
  Median PFS: 3.1 months
[1]; HER2- patients, listed as Let only
  HR for PFS, VeriStrat Good vs VeriStrat Poor within the treatment arm (95% CI): 0.37 (0.21-0.64)
[1]; HER2- patients, listed as letrozole+placebo
  HR for PFS, VeriStrat Good vs VeriStrat Poor within the treatment arm (95% CI): 0.37
[1]; overall population, VeriStrat Good patients
  Median PFS: 10.8 months
[1]; overall population, VeriStrat Poor patients
  Median PFS: 2.8 months
[1]; overall population, listed as Let only
  HR for PFS, VeriStrat Good vs VeriStrat Poor within the treatment arm (95% CI): 0.36 (0.23-0.58)
[1]; overall population, listed as letrozole+placebo
  HR for PFS, VeriStrat Good vs VeriStrat Poor within the treatment arm (95% CI): 0.36
[2]
  Overall response rate (ORR): significantly superior to anastrozole

## CC(C)(C#N)c1cc(Cn2cncn2)cc(C(C)(C)C#N)c1 [anastrozole]
[3]
  Reduction in recurrence rates: 26%

## CS(=O)(=O)CCNCc1ccc(-c2ccc3ncnc(Nc4ccc(OCc5cccc(F)c5)c(Cl)c4)c3c2)o1 [lapatinib]
[1]; VeriStrat Good group
  Patient outcome on addition of lapatinib to letrozole: little or no clinical benefit
[1]; VeriStrat Poor group
  Patient outcome on addition of lapatinib to letrozole: significantly improves patient outcome

— patent US9254120B2, “Method for predicting breast cancer patient response to combination therapy” (Biodesix, Inc., priority 2011, dated 2016)
